Experiments:
[1] = Activity at beta-lactamase type 2 (unknown origin) by UV-vis spectrophotometry analysis
[2] = Activity at metallo-beta-lactamase L1 (unknown origin) by UV-vis spectrophotometry analysis
[3] = Activity at metallo-beta-lactamase L1 (unknown origin) by fluorescence spectrum analysis
[4] = Activity at beta-lactamase type 2 (unknown origin) by fluorescence spectrum analysis

## O=C(O)C1=C(CSc2ccc(NC(=O)c3cc4ccccc4oc3=O)cc2)CS[C@@H]2[C@H](NC(=O)c3cc4ccccc4oc3=O)C(=O)N12
[1]
  Km: 18 µM
  kcat: 12 s⁻¹
[2]
  Km: 13 µM
  kcat: 5 s⁻¹
[3]
  Km: 18 µM
  kcat: 5 s⁻¹
[4]
  Km: 11 µM
  kcat: 17 s⁻¹
